Values quoted from earlier work, collected in patent publication US20250041246A1, “METHODS AND COMPOSITIONS FOR TREATING VITILIGO” (THE REGENTS OF THE UNIVERSITY OF CALIFORNIA, priority 2021, published 2025).

Legend:
[1] = system: hyperpigmentary disorders; settings: in hyperpigmentary disorders
[2] = system: existing melanosomes (in melanocytes); settings: due to its effect on existing melanosomes (in melanocytes)

Compound	effect on skin pigmentation [1]	effect on skin pigmentation [2]
CN(C)C(=N)N=C(N)N [metformin]	lighten skin	
[H]/N=C(/N)N/C(=N/[H])NCCc1ccccc1 [phenformin]		skin darkening effect
